One substance from patent publication US11845892B2, “Use of complex polyesteramines and polyester polyquaternary ammonium compounds as corrosion inhibitors” (Clariant International, Ltd., priority 2021, dated 2023) can be followed below.

The assay is described as follows: Rotating Cage Autoclave Test (RCA), sour. The settings on record: 150 ppm, 200 ppm H2S, 15% CO2, balance N2, 65° C., 70 bar, 72 hours, 1700 rpm. As to the method:
In order to evaluate the corrosion inhibition efficacy of the polyesters according to the invention, 4 different test methods were employed: Linear Polarizing Resistance (LPR), Rotating Cylinder Electrode Test (RCE), Shell wheel test and High Pressure/High Temperature Rotating Cage Autoclave Test (RCA). For all testing 3.5% NaCl brine was used. For the application tests the materials to be tested (inventive as well as comparative) were diluted with butyl glycol to an active content of 25 wt.-% prior to testing. The dosage rates given in the tables refer to these 25 wt.-% active formulations.
Autoclaves equipped with rotating cages (RCA) were used to simulate high shear conditions for the purpose of evaluating system corrosivity and inhibitor performance. The testing solution consisted of 720 mL 3.5% NaCl brine and 80 mL LVT-200 oil. The synthetic brine had three cycles of vacuum/CO2 charge to the vessel prior to initiating the test to remove dissolved oxygen and to achieve an anaerobic system. Two weight loss corrosion coupons fixed on the rotating cage were used in each autoclave. General corrosion rates were calculated by weight loss measurement. A blank was run for comparison. Test conditions have been summarized below in Table 5.

As for “N-tallow alkyl hexahydropyrimidinium ethoxylate methosulfate [sample 6]”, the “Average corrosion rate [mpy]” value is 8.99 mpy and the Percent protection is 92.8%.
